Data published in ChEMBL document CHEMBL4017480, “Discovery and optimization of selective FGFR4 inhibitors via scaffold hopping” (Bioorg Med Chem Lett, 2017).

How the values were obtained:
[1] = target: Epidermal growth factor receptor (Homo sapiens, UniProt P00533); assay: Inhibition of human EGFR at 10 uM using poly[Glu:Tyr] (4:1) as substrate measured after 120 mins in presence of [gamma33P]ATP by P81 ion exchange chromatographic method relative to control
[2] = target: T1, Tyrosine-protein kinase Tec (Homo sapiens) (UniProt P42680); assay: Inhibition of human TEC at 10 uM using poly[Glu:Tyr] (4:1) as substrate measured after 120 mins in presence of [gamma33P]ATP by P81 ion exchange chromatographic method relative to control
T1 sequence (whole entry): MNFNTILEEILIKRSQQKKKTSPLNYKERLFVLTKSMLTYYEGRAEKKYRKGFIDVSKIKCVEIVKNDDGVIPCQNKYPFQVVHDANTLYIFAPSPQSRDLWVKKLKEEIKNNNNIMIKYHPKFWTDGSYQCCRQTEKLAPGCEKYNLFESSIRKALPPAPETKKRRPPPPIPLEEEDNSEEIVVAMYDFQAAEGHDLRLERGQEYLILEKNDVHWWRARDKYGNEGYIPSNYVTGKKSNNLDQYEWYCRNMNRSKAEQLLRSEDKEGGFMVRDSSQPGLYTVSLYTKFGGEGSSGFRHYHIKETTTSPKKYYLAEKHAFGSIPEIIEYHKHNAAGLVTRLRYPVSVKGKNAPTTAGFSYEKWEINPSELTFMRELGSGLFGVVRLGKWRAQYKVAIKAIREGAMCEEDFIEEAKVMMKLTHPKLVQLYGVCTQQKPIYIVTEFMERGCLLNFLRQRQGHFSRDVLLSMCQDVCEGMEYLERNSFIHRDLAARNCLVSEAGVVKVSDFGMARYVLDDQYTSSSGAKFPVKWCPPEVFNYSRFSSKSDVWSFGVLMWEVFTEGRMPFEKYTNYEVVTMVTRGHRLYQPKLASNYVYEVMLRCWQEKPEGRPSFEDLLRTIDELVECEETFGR

[3] = target: Fibroblast growth factor receptor 4 (Homo sapiens, UniProt P22455); assay: Inhibition of recombinant human N-terminal His-tagged FGFR4 cytoplasmic domain […] expressed in baculovirus expression system using tyr 04 peptide as substrate measured within 90 mins by Z-LYTE assay
[4] = target: Fibroblast growth factor receptor 1 (Homo sapiens, UniProt P11362); assay: Inhibition of recombinant human His-tagged FGFR1 cytoplasmic domain (308 to 731 residues) expressed in baculovirus expression system using tyr 04 as substrate measured within 60 mins by Z-LYTE assay
[5] = Efflux ratio of apparent permeability from basolateral to apical over apical to basolateral side in MDCK2-MDR1 cells at 2 uM after 2.5 hrs LC-MS/MS analysis; type: ADME, cell-based, Canis lupus familiaris; details: dog, MDCK-MDR1
[6] = Unbound plasma concentration in human at 2 uM measured after 4 hrs by LC-MS/MS analysis; type: ADME, cell-free
[7] = Unbound plasma concentration in rat at 2 uM measured after 4 hrs by LC-MS/MS analysis; type: ADME, cell-free
[8] = Volume of distribution in Balb/c mouse at 0.2 mg/kg, iv administered as single bolus dose by LC-MS/MS analysis; type: ADME, organism-based; details: in vivo
Plasma = assay: Drug degradation in human plasma measured after 2 hrs by metabolite identification method; type: ADME, cell-free

Sequence of Epidermal growth factor receptor (P00533 whole entry): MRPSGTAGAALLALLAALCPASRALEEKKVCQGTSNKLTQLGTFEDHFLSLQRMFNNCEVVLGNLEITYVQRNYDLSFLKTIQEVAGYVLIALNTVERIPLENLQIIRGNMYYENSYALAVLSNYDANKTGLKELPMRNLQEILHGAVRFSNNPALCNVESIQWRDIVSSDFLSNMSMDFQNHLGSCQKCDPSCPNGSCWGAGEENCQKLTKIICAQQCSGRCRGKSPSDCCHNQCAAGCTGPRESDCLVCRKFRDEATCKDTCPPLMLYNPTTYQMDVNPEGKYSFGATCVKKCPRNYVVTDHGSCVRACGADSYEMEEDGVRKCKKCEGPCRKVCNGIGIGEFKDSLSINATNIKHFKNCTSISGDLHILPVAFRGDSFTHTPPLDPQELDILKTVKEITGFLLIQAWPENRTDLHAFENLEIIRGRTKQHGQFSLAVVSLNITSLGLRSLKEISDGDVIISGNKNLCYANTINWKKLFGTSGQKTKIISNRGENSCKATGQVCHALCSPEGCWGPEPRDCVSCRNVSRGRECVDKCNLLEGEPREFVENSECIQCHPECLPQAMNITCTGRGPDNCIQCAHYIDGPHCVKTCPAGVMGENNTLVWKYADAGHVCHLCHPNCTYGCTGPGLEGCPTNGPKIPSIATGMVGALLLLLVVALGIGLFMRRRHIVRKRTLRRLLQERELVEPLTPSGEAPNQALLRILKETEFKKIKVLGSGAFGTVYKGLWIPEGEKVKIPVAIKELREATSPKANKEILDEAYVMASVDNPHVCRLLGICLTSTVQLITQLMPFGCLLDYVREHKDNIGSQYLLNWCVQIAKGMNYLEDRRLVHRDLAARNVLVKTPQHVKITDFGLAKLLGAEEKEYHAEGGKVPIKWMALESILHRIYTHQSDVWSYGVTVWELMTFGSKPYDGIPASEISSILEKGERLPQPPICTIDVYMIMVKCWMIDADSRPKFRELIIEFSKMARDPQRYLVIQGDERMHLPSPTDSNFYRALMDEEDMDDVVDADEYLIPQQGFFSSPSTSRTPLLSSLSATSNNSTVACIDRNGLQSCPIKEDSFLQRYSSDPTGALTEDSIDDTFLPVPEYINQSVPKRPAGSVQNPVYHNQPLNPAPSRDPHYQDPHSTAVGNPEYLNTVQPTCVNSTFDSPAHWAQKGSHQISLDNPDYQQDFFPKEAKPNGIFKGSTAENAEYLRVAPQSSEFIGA
Sequence of Fibroblast growth factor receptor 1 (P11362 whole entry, the tested form may be a part): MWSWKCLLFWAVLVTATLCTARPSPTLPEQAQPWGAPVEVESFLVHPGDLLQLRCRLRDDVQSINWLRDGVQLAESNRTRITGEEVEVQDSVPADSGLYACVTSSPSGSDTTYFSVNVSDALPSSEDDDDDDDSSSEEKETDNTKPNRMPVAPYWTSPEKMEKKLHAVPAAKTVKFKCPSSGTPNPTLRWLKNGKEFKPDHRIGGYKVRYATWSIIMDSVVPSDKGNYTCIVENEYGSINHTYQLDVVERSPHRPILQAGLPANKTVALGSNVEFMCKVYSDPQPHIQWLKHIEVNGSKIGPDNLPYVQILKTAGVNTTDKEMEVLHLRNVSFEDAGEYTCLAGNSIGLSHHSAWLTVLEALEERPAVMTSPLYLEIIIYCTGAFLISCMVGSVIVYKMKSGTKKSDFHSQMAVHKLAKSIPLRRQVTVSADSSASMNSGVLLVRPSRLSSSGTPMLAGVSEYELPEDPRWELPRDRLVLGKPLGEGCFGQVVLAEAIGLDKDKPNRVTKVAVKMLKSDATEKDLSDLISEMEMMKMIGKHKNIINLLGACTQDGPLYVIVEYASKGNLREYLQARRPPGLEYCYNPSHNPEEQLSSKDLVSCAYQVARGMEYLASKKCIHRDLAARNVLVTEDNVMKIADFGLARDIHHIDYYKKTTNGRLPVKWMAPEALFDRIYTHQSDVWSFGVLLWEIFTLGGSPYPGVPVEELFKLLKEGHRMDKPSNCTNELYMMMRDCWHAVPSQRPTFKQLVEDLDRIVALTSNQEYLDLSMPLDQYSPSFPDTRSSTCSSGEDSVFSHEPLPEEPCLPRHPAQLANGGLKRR
Sequence of Fibroblast growth factor receptor 4 (P22455 whole entry, the tested form may be a part): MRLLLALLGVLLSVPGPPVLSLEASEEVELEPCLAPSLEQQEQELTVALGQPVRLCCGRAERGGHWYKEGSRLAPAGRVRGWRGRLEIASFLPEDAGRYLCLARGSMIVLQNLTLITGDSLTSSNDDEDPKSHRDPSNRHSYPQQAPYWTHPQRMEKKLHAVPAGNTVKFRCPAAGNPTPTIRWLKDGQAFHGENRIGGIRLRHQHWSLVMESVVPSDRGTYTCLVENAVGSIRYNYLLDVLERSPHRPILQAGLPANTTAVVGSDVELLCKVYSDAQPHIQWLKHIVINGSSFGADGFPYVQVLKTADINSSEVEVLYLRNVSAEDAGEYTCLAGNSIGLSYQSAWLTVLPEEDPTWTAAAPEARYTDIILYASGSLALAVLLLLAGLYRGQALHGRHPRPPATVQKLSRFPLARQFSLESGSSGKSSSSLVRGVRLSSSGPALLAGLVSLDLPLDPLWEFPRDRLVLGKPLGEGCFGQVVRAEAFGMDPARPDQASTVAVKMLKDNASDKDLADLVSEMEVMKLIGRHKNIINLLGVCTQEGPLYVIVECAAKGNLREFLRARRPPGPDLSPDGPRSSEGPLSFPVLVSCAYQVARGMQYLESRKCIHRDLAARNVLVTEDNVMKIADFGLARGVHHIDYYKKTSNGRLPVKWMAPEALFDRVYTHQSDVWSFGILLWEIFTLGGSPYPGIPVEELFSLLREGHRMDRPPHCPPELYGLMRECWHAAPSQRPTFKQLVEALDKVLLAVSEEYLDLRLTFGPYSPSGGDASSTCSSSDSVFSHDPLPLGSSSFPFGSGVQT

| inhibition [1] [%] | inhibition [2] [%] | IC50 [3] [µM] | IC50 [4] [µM] | efflux ratio at 2.5 h, 2 µM [5] | fraction unbound at 4 h, 2 µM [6] | fraction unbound at 4 h, 2 µM [7] | Vd [8] [L/kg] | Drug degradation (Plasma) [%] | Compound |
| --- | --- | --- | --- | --- | --- | --- | --- | --- | --- |
| 1 | -5 |  |  |  |  |  |  |  | C=CC(=O)Nc1cccc(C)c1Nc1ncc2cc(-c3c(Cl)c(OC)cc(OC)c3Cl)ccc2n1 |
| 1 | -1 | 0.013 | 3.5 | 3.8 | 0.354 | 0.309 | 0.58 |  | C=CC(=O)N[C@H]1COC[C@H]1Nc1ncc(OCc2c(F)c(OC)cc(OC)c2F)cn1 |
| 6 |  | 0.003 | 8.6 | 1 |  |  |  | 30 | C=CC(=O)Nc1cccc(C)c1Nc1ncc(OCc2c(F)c(OC)cc(OC)c2F)cn1 |
